This note sets out measurements from ChEMBL document CHEMBL5500346, “Targeting EGFR degradation by autophagosome degraders” (Eur J Med Chem, 2024).

Data set [1] addresses T1, Microtubule-associated protein 1 light chain 3 beta/Epidermal growth factor receptor (Homo sapiens, UniProt P00533+Q9GZQ8). Briefly: Binding affinity to biotinylated LC3B/EGFR in human HCC827 cells assessed as dissociation constant BLI assay. It counts as cell-based.
The subject of a further data set is NCI-H3255. In words: Antiproliferative activity against human NCI-H3255 cells incubated for 72 hrs by CCK8 assay. The settings on record: NCI-H3255, 72 h. It counts as functional, cell-based.
For the next data set, the system named is A549. In words: Antiproliferative activity against human A549 cells incubated for 72 hrs by CCK8 assay. To be noted: A549, 72 h. It counts as functional, cell-based. (In general: Formazan colour is commonly taken as a measure of viable cells.)
Another data set concerns NCI-H1975. In words: Antiproliferative activity against human NCI-H1975 cells incubated for 72 hrs by CCK8 assay. The data set is classed as functional, cell-based. The settings on record: NCI-H1975, 72 h.
The target in data set [2] is T1, Microtubule-associated protein 1 light chain 3 beta/Epidermal growth factor receptor. Briefly: ATTEC activity at LC3B/EGFR in human HCC827 cells assessed as protein degradation by immunoblot analysis. It counts as cell-based. (In general: In western blotting, separated proteins are transferred to a membrane and probed.)
A further data set has as its system PC-9. Briefly: Antiproliferative activity against human PC-9 cells incubated for 72 hrs by CCK8 assay. To be noted: PC-9, 72 h. The data set is classed as functional, cell-based.
In data set [3] the target is T1, Microtubule-associated protein 1 light chain 3 beta/Epidermal growth factor receptor. Briefly: Binding affinity to biotinylated LC3B/EGFR in human HCC827 cells BLI assay. It counts as cell-based.
The next data set has as its system HCC827. In words: Antiproliferative activity against human HCC827 cells incubated for 72 hrs by CCK8 assay. The settings on record: HCC827, 72 h. It counts as functional, cell-based.
A further data set deals with L02. Briefly: Antiproliferative activity against human HL7702 cells incubated for 72 hrs by CCK8 assay. The data set is classed as toxicity, cell-based. To be noted: l02, 72 h.
Data set [4] addresses T1, Microtubule-associated protein 1 light chain 3 beta/Epidermal growth factor receptor. In words: ATTEC activity at LC3B/EGFR in human HCC827 cells assessed as increase in density of lysosomes incubated for 4 hrs by LysoTracker Red staining based analysis. It counts as cell-based.

Calls of active or inactive are those of the source. Unless noted, the rule behind the calls is not given here.

Turning to `COc1cc2ncnc(Nc3ccc(F)c(Cl)c3)c2cc1OCCOCCNC(=O)COc1c(Br)cc(/C=C2\C(=O)Nc3ccccc32)cc1Br`, the Kd in [1] was determined as 2200 nM. Moreover, the IC50 in the data set on NCI-H3255 was 904 nM; in the data set on A549, more than 10000 nM; in the data set with NCI-H1975, more than 10000 nM; in the data set on PC-9 it was 3630 nM; in the data set with HCC827 it was 1160 nM. Also, the DC50 in data set [2] amounted to 4380 nM. The result in data set [3] and in data set [4] was Active. The Activity result with L02 is recorded as “Non-Toxic”.

As a reminder, the Kd is a measure of binding affinity in units of concentration. What is called IC50 is the concentration at which inhibition is half-maximal. Higher therefore signals weaker potency in that assay. Usually DC50 stands for the concentration giving 50% degradation.
